Results: PMC10825133, “Repurposing proteasome inhibitors for improved treatment of triple-negative breast cancer” (Cell Death Discovery, 2024)
Like-named read-outs stand apart in the source and are kept apart here.

Legend:
BT-549 cells = experiment: Resazurin-based cell viability assay, monotherapy drug screen; design: species or system human; AUC: scale not given here; settings: BT-549; for AUC: area under the dose response curve, 24 h; for GRmax: drug efficacy at highest tested dose (<0 cytotoxic, 0 cytostatic, >0 partial growth inhibition)
Summary of the method: (§1)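 Cells were seeded at the highest density (tested 1000-16000 cells/well) giving linear growth between days 1 and 3, keeping them in exponential phase over the ~52 h experiment. Viability was read after 4 h at 37 °C with 0.2 mg/ml resazurin added at 10% of medium volume; ex 560/em 615 nm.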

HCC1806 cells = experiment: as above; design: species or system human; AUC: scale not given here; settings: HCC1806; for AUC: area under the dose response curve, 24 h; for GRmax: drug efficacy at highest tested dose (<0 cytotoxic, 0 cytostatic, >0 partial growth inhibition)
Summary of the method: as §1

HCC38 cells = experiment: as above; design: species or system human; AUC: scale not given here; settings: HCC38; for AUC: area under the dose response curve, 24 h; for GRmax: drug efficacy at highest tested dose (<0 cytotoxic, 0 cytostatic, >0 partial growth inhibition)
Summary of the method: as §1

HCC70 cells = experiment: as above; design: species or system human; AUC: scale not given here; settings: HCC70; for AUC: area under the dose response curve, 24 h; for GRmax: drug efficacy at highest tested dose (<0 cytotoxic, 0 cytostatic, >0 partial growth inhibition)
Summary of the method: as §1

MCF-10A cells = experiment: as above; design: species or system human; AUC: scale not given here; settings: for AUC: area under the dose response curve, 24 h; for GRmax: drug efficacy at highest tested dose (<0 cytotoxic, 0 cytostatic, >0 partial growth inhibition)
Summary of the method: as §1

MCF-7 cells = experiment: as above; design: species or system human; AUC: scale not given here; settings: MCF-7; for AUC: area under the dose response curve, 24 h; for GRmax: drug efficacy at highest tested dose (<0 cytotoxic, 0 cytostatic, >0 partial growth inhibition)
Summary of the method: as §1

MDA-MB-436 cells = experiment: as above; design: species or system human; AUC: scale not given here; settings: MDA-MB-436; for AUC: area under the dose response curve, 24 h; for GRmax: drug efficacy at highest tested dose (<0 cytotoxic, 0 cytostatic, >0 partial growth inhibition)
Summary of the method: as §1

MDA-MB-453 cells = experiment: as above; design: species or system human; AUC: scale not given here; settings: MDA-MB-453; for AUC: area under the dose response curve, 24 h; for GRmax: drug efficacy at highest tested dose (<0 cytotoxic, 0 cytostatic, >0 partial growth inhibition)
Summary of the method: as §1

MDA-MB-468 cells = experiment: as above; design: species or system human; AUC: scale not given here; settings: MDA-MB-468; for AUC: area under the dose response curve, 24 h; for GRmax: drug efficacy at highest tested dose (<0 cytotoxic, 0 cytostatic, >0 partial growth inhibition)
Summary of the method: as §1

[1] = test system: eight TNBC cell lines (BT-549, CAL-148, HCC1806, HCC38, HCC70, MDA-MB-436, MDA-MB-453, MDA-MB-468); experiment: Monotherapy drug screen, mean across the TNBC cell lines; settings: for IC50: read-out: GR50 (mean ± SD); for area under the dose response curve (AUC), mean ± SD / cytotoxic effect at the highest dose: TNBC cell lines; for cytotoxic effect at the highest dose: by GRmax
Summary of the method: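 Cells seeded at 4.0 × 10^3–7.5 × 10^3/well, grown 24 h, then drug-treated 24 h with matched solvent-vehicle controls per concentration; resazurin absorbance read-out, viability normalised to vehicle after background subtraction, t = 0 untreated cells for GR. AUC, IC50, GR50, GRmax via GRmetrics; combinations predicted by IDACombo, synergy scored with SynergyFinder.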

[2] = Homo sapiens, 24 h drug treatment, read-out: IC50
[3] = Homo sapiens, growth rate inhibition concentration at GR(c) = 0.5, 24 h, read-out: GR50 (the source's name)
[4] = Homo sapiens, MCF7, growth rate inhibition concentration at GR(c) = 0.5, 24 h, read-out: GR50 (the source's name)
[5] = growth rate inhibition concentration at GR(c) = 0.5, 24 h, read-out: GR50 (the source's name)
[6] = 24 h drug treatment, read-out: IC50

CC(C)C[C@H](NC(=O)[C@H](CCc1ccccc1)NC(=O)CN1CCOCC1)C(=O)N[C@@H](Cc1ccccc1)C(=O)N[C@@H](CC(C)C)C(=O)[C@@]1(C)CO1 [Carfilzomib]
AUC (BT-549 cells): 0.67
GRmax (BT-549 cells): 0.37
IC50 (BT-549 cells; [2]): 4.4 µM
IC50 (BT-549 cells; [3]): 1 µM
AUC (HCC1806 cells): 0.73
GRmax (HCC1806 cells): 0.31
IC50 (HCC1806 cells; [2]): 1.7 µM
IC50 (HCC1806 cells; [3]): 0.95 µM
AUC (HCC38 cells): 0.71
GRmax (HCC38 cells): −0.99
IC50 (HCC38 cells; [2]): 0.57 µM
IC50 (HCC38 cells; [3]): 0.38 µM
AUC (HCC70 cells): 0.76
GRmax (HCC70 cells): −0.57
IC50 (HCC70 cells; [2]): 2.1 µM
IC50 (HCC70 cells; [3]): 0.48 µM
IC50 (MCF-10A cells; [2]): 0.54 µM
IC50 (MCF-10A cells; [3]): 0.11 µM
AUC (MCF-10A cells): 0.66
IC50 (MCF-7 cells; [4]): 0.19 µM
AUC (MCF-7 cells): 0.81
GRmax (MCF-7 cells): −0.45
IC50 (MDA-MB-436 cells; [3]): 0.0018 µM
AUC (MDA-MB-436 cells): 0.73
GRmax (MDA-MB-436 cells): −0.89
IC50 (MDA-MB-453 cells; [3]): 0.22 µM
AUC (MDA-MB-453 cells): 0.77
IC50 (MDA-MB-468 cells; [2]): 0.46 µM
IC50 (MDA-MB-468 cells; [3]): 0.11 µM
AUC (MDA-MB-468 cells): 0.65
IC50 ([1]; Homo sapiens, 24 h): 0.44 ± 0.34 µM
area under the dose response curve (AUC), mean ± SD ([1]; 24 h): 0.73 ± 0.10

COc1cccc2c1C(=O)c1c(O)c3c(c(O)c1C2=O)C[C@@](O)(C(=O)CO)C[C@@H]3O[C@H]1C[C@H](N)[C@H](O)[C@H](C)O1 [Doxorubicin]
AUC (BT-549 cells): 0.89
GRmax (BT-549 cells): 0.36
IC50 (BT-549 cells; [2]): 7.6 µM
IC50 (BT-549 cells; [3]): 5.6 µM
AUC (HCC1806 cells): 0.87
GRmax (HCC1806 cells): 0.54
IC50 (HCC1806 cells; [3]): 6 µM
AUC (HCC38 cells): 0.83
GRmax (HCC38 cells): 0.01
IC50 (HCC38 cells; [2]): 2.9 µM
IC50 (HCC38 cells; [3]): 0.77 µM
AUC (HCC70 cells): 0.88
GRmax (HCC70 cells): −0.35
IC50 (HCC70 cells; [2]): 3.3 µM
IC50 (HCC70 cells; [3]): 1.8 µM
IC50 (MCF-10A cells; [2]): 0.99 µM
IC50 (MCF-10A cells; [3]): 0.98 µM
AUC (MCF-10A cells): 0.72
IC50 (MCF-7 cells; Homo sapiens, MCF7, 24 h drug treatment, read-out: IC50): 1.8 µM
IC50 (MCF-7 cells; [4]): 5.7 µM
AUC (MCF-7 cells): 0.93
GRmax (MCF-7 cells): 0.44
IC50 (MDA-MB-436 cells; [2]): 9.7 µM
IC50 (MDA-MB-436 cells; [3]): 3.4 µM
AUC (MDA-MB-436 cells): 0.85
GRmax (MDA-MB-436 cells): 0.26
IC50 (MDA-MB-453 cells; [2]): 8.1 µM
IC50 (MDA-MB-453 cells; [3]): 4.6 µM
AUC (MDA-MB-453 cells): 0.88
IC50 (MDA-MB-468 cells; [2]): 3 µM
IC50 (MDA-MB-468 cells; [3]): 1.5 µM
AUC (MDA-MB-468 cells): 0.84
cytotoxic effect at the highest dose [1]: lowest cytotoxic effects

CC[C@H](C)[C@H](NC(=O)[C@H]([C@@H](C)CC)N(C)C(C)=O)C(=O)N[C@H](C(=O)N[C@@H](CC(C)C)C(=O)[C@@]1(C)CO1)[C@@H](C)O [Epoxomicin]
AUC (BT-549 cells): 0.73
GRmax (BT-549 cells): 0.38
IC50 (BT-549 cells; [5]): 0.13 µM
IC50 (HCC1806 cells; [6]): 0.47 µM
AUC (HCC1806 cells): 0.73
GRmax (HCC1806 cells): 0.34
IC50 (HCC1806 cells; [5]): 0.29 µM
IC50 (HCC38 cells; [6]): 0.054 µM
AUC (HCC38 cells): 0.47
GRmax (HCC38 cells): −0.74
IC50 (HCC38 cells; [5]): 0.044 µM
IC50 (HCC70 cells; [6]): 0.98 µM
AUC (HCC70 cells): 0.72
GRmax (HCC70 cells): −0.52
IC50 (HCC70 cells; [5]): 0.14 µM
IC50 (MCF-10A cells; [6]): 0.088 µM
AUC (MCF-10A cells): 0.58
GRmax (MCF-10A cells): −0.05
IC50 (MCF-10A cells; [5]): 0.095 µM
IC50 (MCF-7 cells; [6]): 1.2 µM
AUC (MCF-7 cells): 0.74
GRmax (MCF-7 cells): 0.42
IC50 (MCF-7 cells; [5]): 0.075 µM
AUC (MDA-MB-436 cells): 0.77
GRmax (MDA-MB-436 cells): 0.37
IC50 (MDA-MB-436 cells; [5]): 0.32 µM
AUC (MDA-MB-453 cells): 0.70
GRmax (MDA-MB-453 cells): 0.32
IC50 (MDA-MB-453 cells; [5]): 0.015 µM
IC50 (MDA-MB-468 cells; [6]): 0.11 µM
AUC (MDA-MB-468 cells): 0.65
GRmax (MDA-MB-468 cells): 0.01
IC50 (MDA-MB-468 cells; [5]): 0.051 µM
area under the dose response curve (AUC), mean ± SD ([1]; 24 h): 0.69 ± 0.10
cytotoxic effect at the highest dose [1]: lowest cytotoxic effects
IC50 ([1]; across the TNBC cell lines, 24 h drug treatment): 0.22 ± 0.23 µM

N.N.O=C([O-])C1(C(=O)[O-])CCC1.[Pt+2] [Carboplatin]
AUC (BT-549 cells): 0.85
GRmax (BT-549 cells): 0.39
IC50 (BT-549 cells; [5]): 0.67 µM
AUC (HCC1806 cells): 0.90
GRmax (HCC1806 cells): 0.53
IC50 (HCC38 cells; [6]): 0.89 µM
AUC (HCC38 cells): 0.88
GRmax (HCC38 cells): 0.03
IC50 (HCC38 cells; [5]): 0.43 µM
IC50 (HCC70 cells; [6]): 0.45 µM
AUC (HCC70 cells): 0.83
GRmax (HCC70 cells): −0.42
IC50 (HCC70 cells; [5]): 0.27 µM
IC50 (MCF-10A cells; [6]): 0.73 µM
AUC (MCF-10A cells): 0.90
GRmax (MCF-10A cells): 0.19
IC50 (MCF-10A cells; [5]): 0.76 µM
AUC (MCF-7 cells): 0.91
GRmax (MCF-7 cells): −0.15
IC50 (MCF-7 cells; [5]): 0.36 µM
AUC (MDA-MB-436 cells): 0.91
GRmax (MDA-MB-436 cells): 0.41
IC50 (MDA-MB-436 cells; [5]): 0.87 µM
AUC (MDA-MB-453 cells): 0.98
GRmax (MDA-MB-453 cells): 0.79
IC50 (MDA-MB-468 cells; [6]): 0.47 µM
AUC (MDA-MB-468 cells): 0.81
GRmax (MDA-MB-468 cells): 0.02
IC50 (MDA-MB-468 cells; [5]): 0.24 µM
cytotoxic effect at the highest dose [1]: lowest cytotoxic effects
